The subject of test [1] is IL4-induced phospho STAT6 formation in Ramos B lymphocytes. Put plainly: Inhibition of IL4-induced phospho STAT6 formation in Ramos B lymphocytes (flow cytometry). The format is cell-based, human. The conditions noted are these: Homo sapiens; for inhibition at 0.2 µM: 200 nM compound, read-out: % Inhibition of IL-4 Induced STAT6 Phosphorylation 200 nM; for inhibition at 1 µM: 1 μM compound, read-out: % Inhibition of IL-4 Induced STAT6 Phosphorylation 1 μM. Put shortly:
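Human Ramos B cells (0.5 million) pre-incubated 1 h at 37°C/5% CO2 with compound or DMSO, then stimulated with 1 ng/ml IL4 for 10 min. Cells were PFA-fixed, methanol-permeabilized and stained with Alexa-anti-phosphoSTAT6 (Y641); flow cytometry mean fluorescence gave percent inhibition of the IL4 signal.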
In general terms: Flow cytometry measures light scatter and fluorescence of single cells or particles in a stream.

Another test addresses T1, JAK1 (Homo sapiens, UniProt P23458).
T1 construct: 5 μl of catalytic domain recombinant Kinase enzyme+Tyr peptide substrate (Invitrogen, Calif.); purchased Invitrogen
Description: Z'-LYTE kinase assay, JAK1 tyrosine phosphorylation activity. Particulars: read-out: JAK 1 IC50. Format: biochemical. The method in brief:
(§1)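 Catalytic domain + Tyr6 peptide + ATP + cpd (1% DMSO), 1 h RT; development protease 1 h RT; FRET ex 400/em 445, 520 nm; % phosphorylation vs no-inhibitor; IC50 by 4-parameter logistic; duplicates.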

Test [2] has as its target T2, Syk (Homo sapiens, UniProt P43405). Put plainly: Syk IC50 (Table 1; method not given). Format: biochemical.
For a further test, the target named is T3, JAK2 (Homo sapiens, UniProt O60674).
T3 construct: 5 μl of catalytic domain recombinant Kinase enzyme+Tyr peptide substrate (Invitrogen, Calif.); purchased Invitrogen
T3 sequence (O60674 849-1124 limits assumed): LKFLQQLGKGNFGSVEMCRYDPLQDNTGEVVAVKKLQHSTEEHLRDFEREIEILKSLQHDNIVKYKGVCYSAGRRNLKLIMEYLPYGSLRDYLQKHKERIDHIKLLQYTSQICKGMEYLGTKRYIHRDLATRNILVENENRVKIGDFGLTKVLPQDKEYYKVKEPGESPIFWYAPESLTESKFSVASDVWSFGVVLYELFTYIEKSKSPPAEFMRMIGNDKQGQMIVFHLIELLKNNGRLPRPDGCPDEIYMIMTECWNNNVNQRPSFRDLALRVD
Description: Z'-LYTE kinase assay, JAK2 tyrosine phosphorylation activity. The format is biochemical. Put shortly: as §1

A further test has as its target T4, TYK2 (Homo sapiens, UniProt P29597).
T4 construct: 5 μl of catalytic domain recombinant Kinase enzyme+Tyr peptide substrate (Invitrogen, Calif.); purchased Invitrogen
T4 sequence (P29597 897-1176 limits assumed): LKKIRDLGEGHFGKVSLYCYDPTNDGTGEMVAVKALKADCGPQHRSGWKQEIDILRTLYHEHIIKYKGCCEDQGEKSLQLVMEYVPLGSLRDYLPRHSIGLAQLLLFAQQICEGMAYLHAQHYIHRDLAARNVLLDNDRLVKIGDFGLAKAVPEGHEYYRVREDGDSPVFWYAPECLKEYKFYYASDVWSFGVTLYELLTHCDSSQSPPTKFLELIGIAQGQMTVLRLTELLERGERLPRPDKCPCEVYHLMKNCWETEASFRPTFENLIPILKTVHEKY
Description: Z'-LYTE kinase assay, TYK2 tyrosine phosphorylation activity. Format: biochemical. Put shortly: as §1

A further test deals with T5, JAK3 (Homo sapiens, UniProt P52333).
T5 construct: 5 μl of catalytic domain recombinant Kinase enzyme+Tyr peptide substrate (Invitrogen, Calif.); purchased Invitrogen
T5 sequence (P52333 822-1111 limits assumed): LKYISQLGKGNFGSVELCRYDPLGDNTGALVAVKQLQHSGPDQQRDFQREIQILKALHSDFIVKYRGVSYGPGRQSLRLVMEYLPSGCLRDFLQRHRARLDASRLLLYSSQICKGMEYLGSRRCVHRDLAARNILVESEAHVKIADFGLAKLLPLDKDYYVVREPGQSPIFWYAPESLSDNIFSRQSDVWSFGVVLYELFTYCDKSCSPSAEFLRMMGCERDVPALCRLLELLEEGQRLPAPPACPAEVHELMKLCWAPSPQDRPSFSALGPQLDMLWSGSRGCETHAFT
Description: Z'-LYTE kinase assay, JAK3 tyrosine phosphorylation activity. Format: biochemical. Put shortly: as §1

The target of test [3] is T2, Syk. Description: Syk kinase inhibition (Syk IC50 of Table 1). The format is biochemical.

Here are results for eleven compounds from US8853230B2, “Inhibitors of JAK” (Portola Pharmaceuticals, Inc., priority 2009, dated 2014).

The term inhibition denotes the percentage by which the read-out fell short of the control. In general, IC50 refers to the midpoint of a concentration-inhibition curve.

T1 sequence (P23458 875-1153 limits assumed): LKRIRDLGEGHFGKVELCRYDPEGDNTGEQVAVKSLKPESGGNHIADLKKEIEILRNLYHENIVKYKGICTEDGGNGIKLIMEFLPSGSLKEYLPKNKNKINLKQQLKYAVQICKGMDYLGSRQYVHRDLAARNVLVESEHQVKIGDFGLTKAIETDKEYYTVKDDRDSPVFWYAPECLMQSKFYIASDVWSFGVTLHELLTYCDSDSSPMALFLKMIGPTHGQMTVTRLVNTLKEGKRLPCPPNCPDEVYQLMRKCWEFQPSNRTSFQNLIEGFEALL

Turning to `CC(=O)Nc1cccc(Nc2ncc(C(N)=O)c(N[C@H](CO)c3ccccc3)n2)c1` [Example 93, (S)-2-(3-acetamidophenylamino)-4-(2-hydroxy-1-phenylethylamino)pyrimidine-5-carboxamide], the inhibition at 0.2 µM in test [1] was found to be 20%. Moreover, the inhibition at 1 µM in test [1] is 53%. For the same compound, the IC50 is 100 to 1000 nM at JAK1; over 1000 nM on Syk [2]; 10 to 100 nM against JAK2; 10 to 100 nM against TYK2; 1 to 10 nM on JAK3.
For `CC(=O)Nc1cccc(Nc2ncc(C(N)=O)c(NCC3CCCN(C(=O)OCc4ccccc4)C3)n2)c1` (centres unmarked) [Example 115, Benzyl 3-((2-(3-acetamidophenylamino)-5-carbamoylpyrimidin-4-ylamino)methyl)piperidine-1-carboxylate], in test [1], the inhibition at 0.2 µM stood at 12.3%. The inhibition at 1 µM in test [1] is 53.7%. Also, the half-inhibitory concentration (IC50) at JAK1 was 100 to 1000 nM; against Syk [2], over 1000 nM; against JAK2 it was 100 to 1000 nM; at TYK2, 100 to 1000 nM; at JAK3, 10 to 100 nM.
For the compound `CC(=O)Nc1cccc(Nc2ncc(C(N)=O)c(NCC3CCCN(C(N)=O)C3)n2)c1` (centres unmarked) [Example 117, 2-(3-acetamidophenylamino)-4-((1-carbamoylpiperidin-3-yl)methylamino)pyrimidine-5-carboxamide], the inhibition at 0.2 µM in test [1] stood at 4.5%. The inhibition at 1 µM in test [1] was determined as 29.5%. The IC50 was 10 to 100 nM at JAK1; 100 to 1000 nM at Syk [2]; 1 to 10 nM on JAK2; 1 to 10 nM on TYK2; under 1 nM on JAK3.
Regarding `CC(=O)Nc1cccc(Nc2ncc(C(N)=O)c(NCC3CCCN(C(C)=O)C3)n2)c1` (centres unmarked) [Example 119, 2-(3-acetamidophenylamino)-4-((1-acetylpiperidin-3-yl)methylamino)pyrimidine-5-carboxamide], the inhibition at 0.2 µM in test [1] worked out at 9%. Further, the inhibition at 1 µM in test [1] came out at 63%. Also, the IC50 lay in the range of 10 to 100 nM at JAK1; 100 to 1000 nM on Syk [2]; 10 to 100 nM on JAK2; 10 to 100 nM against TYK2; 1 to 10 nM on JAK3.
On to `C[C@@H](Nc1nc(Nc2cccc(NC(=O)N3CC=CC3)c2)ncc1C(N)=O)c1ccccc1` [Example 121, (R)-2-(3-(2,5-dihydro-1H-pyrrole-1-carboxamido)phenylamino)-4-(1-phenylethylamino)pyrimidine-5-carboxamide], for which the inhibition at 0.2 µM in test [1] worked out at 18.3%. Also, the inhibition at 1 µM in test [1] was determined as 61.7%. The concentration for half-maximal inhibition (IC50) was 100 to 1000 nM on JAK1; over 1000 nM against Syk [2]; 10 to 100 nM on JAK2; 10 to 100 nM on TYK2; 1 to 10 nM against JAK3.
Consider `C[C@@H](Nc1nc(Nc2cccc(NC(=O)N3CC[C@H](O)C3)c2)ncc1C(N)=O)c1ccccc1` [Example 128, 2-(3-((S)-3-hydroxypyrrolidine-1-carboxamido)phenylamino)-4-((R)-1-phenylethylamino)pyrimidine-5-carboxamide], for which, in test [1], the inhibition at 0.2 µM worked out at 31.7%. Moreover, in test [1], the inhibition at 1 µM was found to be 82.7%. Also, the concentration for half-maximal inhibition (IC50) at JAK1 was 10 to 100 nM; against Syk [2], over 1000 nM; on JAK2, 10 to 100 nM; against TYK2, 10 to 100 nM; against JAK3, under 1 nM.
For the compound `COC(=O)Nc1cc(Nc2ncc(C(N)=O)c(N[C@H](C)c3ccccc3)n2)ccc1Cl` [Example 129, (R)-methyl 5-(5-carbamoyl-4-(1-phenylethylamino)pyrimidin-2-ylamino)-2-chlorophenylcarbamate], the inhibition at 0.2 µM in test [1] is 4%. The inhibition at 1 µM in test [1] stood at 16.7%. Besides, the 50% inhibitory concentration (IC50) on JAK1 was over 1000 nM; at Syk [2], over 1000 nM; on JAK2, 100 to 1000 nM; at TYK2, 100 to 1000 nM; against JAK3 it was 10 to 100 nM.
Consider `NC(=O)c1cnc(Nc2ccc(Cl)c(NC(=O)N3CCCC3)c2)nc1NCc1ccccc1` [Example 130, 4-(benzylamino)-2-(4-chloro-3-(pyrrolidine-1-carboxamido)phenylamino)pyrimidine-5-carboxamide], for which the inhibition at 0.2 µM in test [1] is 0.7%. Further, the inhibition at 1 µM in test [1] amounted to 19%. The IC50 on JAK1 was 100 to 1000 nM; against Syk [2], over 1000 nM; against JAK2, 100 to 1000 nM; on TYK2 it was 10 to 100 nM; against JAK3, 1 to 10 nM.
On to `CNC(=O)Nc1cc(Nc2ncc(C(N)=O)c(NCc3ccccc3)n2)ccc1Cl` [Example 131, 4-(benzylamino)-2-(4-chloro-3-(3-methylureido)phenylamino)pyrimidine-5-carboxamide], for which the inhibition at 0.2 µM in test [1] is 0.3%. Also, the inhibition at 1 µM in test [1] was found to be 4.3%. The concentration for half-maximal inhibition (IC50) on JAK1 was over 1000 nM; against Syk [2], over 1000 nM; on JAK2, 100 to 1000 nM; on TYK2 it was 10 to 100 nM; against JAK3 it was 1 to 10 nM.
In the case of `CN(C)[C@@H]1CCN(C(=O)Nc2cccc(Nc3cc(N[C@H](CO)c4ccccc4)c(C(N)=O)cn3)c2)C1` [Example 312, 6-(3-((R)-3-(dimethylamino)pyrrolidine-1-carboxamido)phenylamino)-4-((S)-2-hydroxy-1-phenylethylamino)nicotinamide], the IC50 on JAK1 is over 1000 nM; against Syk [3], over 1000 nM; against JAK2, 100 to 1000 nM; at JAK3, 1 to 10 nM.
Turning to `CC(=O)Nc1cccc(Nc2cc(NCc3ccccc3F)c(C(N)=O)cn2)c1` [Example 340, 6-(3-acetamidophenylamino)-4-(2-fluorobenzylamino)nicotinamide], the IC50 is 100 to 1000 nM at JAK1, over 1000 nM against Syk [3], 100 to 1000 nM against JAK2 and 10 to 100 nM at JAK3.
